{"source": "paper PMC11274654", "about": "(Biomedicines, 2024)", "key": {"rat BMSCs (rBMSCs) [1]": {"system": "rat BMSCs (rBMSCs)", "assay": "ALP activity in rat bone marrow stromal cells", "assay_type": "cell-based", "conditions": "1 nM, seven days post-treatment"}, "rat BMSCs (rBMSCs) [2]": {"system": "rat BMSCs (rBMSCs)", "assay": "BrdU proliferation assay in rBMSCs", "assay_type": "cell-based", "conditions": "1 nM", "description": "Rat and mouse bone marrow stromal cells (BMSCs) were seeded at a density of 4000 cells/well in a 96-well plate for cell proliferation and treated with 1 nM of MTZ for 48 h in a growth medium (α-MEM containing 10% FBS). Following the MTZ treatment, the cells were incubated for 4 h with bromodeoxyuridine (BrdU) before termination. Cell proliferation was assessed at 450 nm using the Roche Diagnostics BrdU ELISA kit, in accordance with the manufacturer’s protocol, using a reference wavelength of 690 nm."}, "mouse BMSCs (mBMSCs)": {"system": "mouse BMSCs (mBMSCs)", "assay": "Nodule mineralization (Alizarin Red S) in mBMSCs", "assay_type": "cell-based", "conditions": "21 days post-treatment, differentiation medium", "description": "Rat and mouse BMSCs were seeded at a density of 1 × 10^6 cells/well in a 6-well plate, vehicle or MTZ (1 nM) treatment was conducted, and the media were changed every alternate day for 21 days using a differentiation medium [10% FBS, β-glycerophosphate (10 mM), ascorbic acid (50 µg/mL), and dexamethasone (100 nM) in α-MEM].\n(§1) Cells were fixed with 10% formalin for 15 min and stained with Alizarin Red for 1 h after 21 days of culture. Moreover, 10% cetylpyridinium chloride (Sigma #C0732) was used to quantify mineralized nodules at a 595 nm wavelength."}, "C3H10T1/2 cells": {"system": "C3H10T1/2 cells", "assay": "Nodule mineralization (Alizarin Red S) in C3H10T1/2 cells", "assay_type": "cell-based, murine", "conditions": "21 days, differentiation medium", "description": "In a different set of experiments, 3 × 10^6 C3H10T1/2 cells were seeded in a 60 mm culture dish. Then, 24 h post-seeding, the vehicle or MTZ treatment was conducted, and the media were changed every alternate day for 21 days using a differentiation medium.\nas §1"}, "[3]": {"system": "bone regeneration at the femur osteotomy site", "assay": "Femur osteotomy model, oral MTZ", "assay_type": "in vivo, Sprague Dawley rats", "conditions": "117 mg/kg and 235 mg/kg oral daily, 12 days", "description": "(§2) Femur osteotomy was carried out in adult female Sprague Dawley (SD) rats (200 ± 20 g, 3 months old) and 3-month post-ovariectomized osteopenic SD rats (280 ± 20 g, 6 months old) by inserting a drill bit with a diameter of 0.8 mm from the anterior to the posterior mid-diaphysis of the right femur.\n(§3) The human equivalent dose for rats is 235 mg/kg; half of this amount, 117 mg/kg, was used for the study. Doses of MTZ (117 mg/kg and 235 mg/kg) were administered daily by the oral route for 12 days. For the formulation study, MTZ@In situ gel and unformulated MTZ were administered every 3 days (total of 4 injections) for a period of 12 days via the subcutaneous route in the osteotomy animal. Each rat received 20 mg/kg, s.c. of bone-seeking fluorochrome calcein 24 h before sacrifice in order to evaluate the new bone formation at the fractured callus.\n(§4) A SkyScan 1076 μCT scanner (SkyScan, Ltd., Kartuizersweg, Kontich, Belgium) was used to perform a high-resolution μCT for the two-dimensional and three-dimensional assessment of excised bones. The rat bone scanning process used an isotropic voxel pixel size of 18 μm and an X-ray source of 70 kV and […]. Utilizing the SkyScan Nrecon software (Version: 1.7.0.4), cross-sectional reconstruction was performed. […] The Batman software (Version: 1.16.8.0+), with trabecular (3D) bone analysis programs was used for quantification."}, "[4]": {"system": "bone regeneration at the callus site in OVX rats", "assay": "Femur osteotomy model in osteopenic OVX rats, oral MTZ", "assay_type": "in vivo, ovariectomized osteopenic SD rats", "conditions": "235 mg/kg oral, 12 days", "description": "as §2, §3, §4"}, "[5]": {"system": "serum P1NP and CTX-I of OVX rats", "assay": "OVX osteopenia model, serum bone turnover markers (ELISA)", "assay_type": "in vivo, SD rats", "conditions": "235 mg/kg oral, 3 months", "description": "The 10-month-old (265 ± 20 g) SD rats were ovariectomized (OVX) bilaterally and left for 3 months to develop osteopenia. Ovary-intact sham-operated animals were used as a control. A live animal micro-CT was performed to confirm osteopenia, followed by dividing the animals into 3 groups: Sham + vehicle (water, oral), OVX + vehicle (water, oral), and OVX + MTZ (235 mg/kg, oral). Each group had 9 rats, and treatment were administered for 3 months. Calcein (20 mg/kg, s.c.) was injected twice before sacrificing at 10-day intervals. The levels of serum procollagen type I N-terminal peptide (P1NP) and serum cross-linked C-telopeptide of type I collagen (CTX-I) were assessed using ELISA (MyBioSource, San Diego, CA, USA), in accordance with the manufacturer’s protocol."}, "[6]": {"assay": "In vitro MTZ release in PBS and release kinetics models", "assay_type": "physicochemical", "parameters": "Hixson–Crowell kHC / Zero-order K0 / First-order K1 / Higuchi kH: unit not given here", "conditions": "in PBS", "description": "To evaluate the release kinetics profile of MTZ, a formulation containing 10 mg equivalent of MTZ was injected into 200 mL of the PBS medium (37 ± 0.5 °C) using a 20-gauge needle. The formulation immediately turned into a gel upon contact with the dissolution medium. The dissolution vials were placed on a reciprocating bath-shaker and left for continuous shaking throughout the dissolution study. A total of 2 mL of aliquots were withdrawn and replaced with an equal volume of fresh PBS to maintain the sink condition. The dissolution study was conducted for a duration of 24 h. The samples were filtered through a syringe filter (0.22 μm). The MTZ concentrations were analyzed spectrophotometrically (294 nm) after appropriate dilution, with PBS as a blank for background correction. The measured concentrations were presented as the mean ± standard deviation (SD).\nTo understand the drug release kinetics, data obtained from the release study were fitted into various kinetics models: zero-order, first-order, Higuchi, Korsmeyer–Peppas, and Hixson–Crowell. The DD solver Excel add-in program was utilized to compare and identify the mechanism of drug release."}}}
{"smiles": "Cc1ncc([N+](=O)[O-])n1CCO", "note": "[Metronidazole]", "values": [{"measurement": "ALP activity compared to the vehicle group", "setting": "rat BMSCs (rBMSCs) [1]", "value": "increased"}, {"measurement": "Proliferation (BrdU incorporation)", "setting": "rat BMSCs (rBMSCs) [2]", "value": "did not affect"}, {"measurement": "Osteogenic differentiation and mineralized nodule formation", "setting": "mouse BMSCs (mBMSCs)", "value": "stimulated"}, {"measurement": "Mineralization", "setting": "C3H10T1/2 cells", "value": "promoted mineralization"}, {"measurement": "Bone volume at the osteotomy site", "setting": "[3]", "value": "increased"}, {"measurement": "Calcein intensity at the osteotomy site", "setting": "[3]", "value": "increased"}, {"measurement": "Bone volume at the callus site compared to the control group", "setting": "[4]", "value": "increased"}, {"measurement": "Calcein intensity at the callus site compared to the control group", "setting": "[4]", "value": "increased"}, {"measurement": "Serum bone formation marker P1NP levels", "setting": "[5]", "value": "restored"}, {"measurement": "Serum resorption marker CTX-1", "setting": "[5]", "value": "failed to reduce it"}, {"measurement": "First-order K1", "setting": "[6]", "value": "0.08 ± 0.00"}, {"measurement": "First-order R^2", "setting": "[6]", "value": "0.84 ± 0.00"}, {"measurement": "Higuchi R^2", "setting": "[6]", "value": "0.71 ± 0.00"}, {"measurement": "Higuchi kH", "setting": "[6]", "value": "16.34 ± 0.12"}, {"measurement": "Hixson–Crowell R^2", "setting": "[6]", "value": "0.86 ± 0.01"}, {"measurement": "Hixson–Crowell kHC", "setting": "[6]", "value": "0.02 ± 0.00"}, {"measurement": "Korsmeyer–Peppas R^2", "setting": "[6]", "value": "0.81 ± 0.01"}, {"measurement": "Korsmeyer–Peppas kKP", "setting": "[6]", "value": "8.64 ± 0.11"}, {"measurement": "Korsmeyer–Peppas n (release exponent)", "setting": "[6]", "value": "0.78 ± 0.01"}, {"measurement": "Zero-order K0", "setting": "[6]", "value": "4.77 ± 0.05"}, {"measurement": "Zero-order R^2", "setting": "[6]", "value": "0.76 ± 0.01"}]}
